One compound from ChEMBL document CHEMBL5325396, “Discovery of Novel Acridane-Based Tubulin Polymerization Inhibitors with Anticancer and Potential Immunomodulatory Effects” (J Med Chem, 2023) can be followed below.

The test system of series [1] is B16-F10. In words: Induction of apoptosis in mouse B16-F10 cells assessed as late apoptotic cells at 10 nM incubated for 48 hrs by annexinV-FITC/PI staining based flow cytometry (reference value: 2.06 %). In kind it is functional.
Series [2] concerns B16-F10. In words: Induction of cell cycle arrest in mouse B16-F10 cells assessed as accumulation at G1 phase at 25 nM incubated for 24 hrs by PI staining based flow cytometry (reference value: 52.77 %). In kind it is functional.
Series [3] in a line: Toxicity in C57 mouse allografted with mouse B16-F10 cells assessed as pathological damage in kidney at 10 mg/kg, ip administered consecutively for 14 days by H and E staining based analysis. In kind it is organism-based. Particulars: in vivo, 336 h, time 14 day.
Series [4] has as its system B16-F10. In words: Induction of apoptosis in mouse B16-F10 cells assessed as viable cells at 50 nM incubated for 48 hrs by annexinV-FITC/PI staining based flow cytometry (reference value: 93.6 %). In kind it is functional. Conditions: read-out: Activity.
The test system of series [5] is B16-F10. In words: Induction of apoptosis in mouse B16-F10 cells assessed as necrotic cells at 10 nM incubated for 48 hrs by annexinV-FITC/PI staining based flow cytometry (reference value: 0.064 %). In kind it is functional.
A short description of series [6]: Toxicity in C57 mouse allografted with mouse B16-F10 cells assessed as body weight loss at 10 mg/kg, ip administered consecutively for 14 days in presence of NP-19. Conditions: in vivo, 336 h, time 14 day. In kind it is organism-based.
For series [7], the system named is B16-F10. Put plainly: Induction of cell cycle arrest in mouse B16-F10 cells assessed as accumulation at S phase at 25 nM incubated for 24 hrs by PI staining based flow cytometry (reference value: 21.79 %). In kind it is functional.
For series [8], the system named is B16-F10. In words: Induction of cell cycle arrest in mouse B16-F10 cells assessed as accumulation at G1 phase at 50 nM incubated for 24 hrs by PI staining based flow cytometry (reference value: 52.77 %). In kind it is functional.
The test system of series [9] is B16-F10. In words: Inhibition of tubulin polymerization in mouse B16-F10 cells assessed as disruption of microtubule network incubated for 6 hrs by fluorescence microscopy. Conditions: dose 10-50 nM. In kind it is cell-based.
The test system of series [10] is B16-F10. In words: Antiproliferative activity against mouse B16-F10 cells incubated for 48 hrs by MTT assay. In kind it is functional, cell-based. Conditions: B16-F10, 48 h.
Series [11] has as its system B16-F10. In words: Induction of apoptosis in mouse B16-F10 cells assessed as early apoptotic cells at 25 nM incubated for 48 hrs by annexinV-FITC/PI staining based flow cytometry (reference value: 4.25 %). In kind it is functional.
Series [12] deals with B16-F10. Put plainly: Immunomodulatory activity in mouse B16-F10 cells allografted in C57 mouse assessed as decrease in PD-L1 level at 10 mg/kg, ip administered consecutively for 14 days relative to control. In kind it is functional. Conditions: time 14 day. Further details: scale not given: the % may be the effect or the level left.

For `COc1ccc2c(c1F)Cc1ccccc1N2C(=O)c1cc(OC)c(OC)c(OC)c1`, the Activity is 3.17% in the series on B16-F10 [1]; 16.55% with B16-F10 [2]; “Non-Toxic” in series [3]; 0.133% in the series on B16-F10 [5]; “Non-Toxic” in series [6]; 38.12% in the series on B16-F10 [7]. Besides, the values for the Activity with B16-F10 [8], in the series with B16-F10 [11] and in the series on B16-F10 [12] were 3.24%, 22.7% and approximately 10%, respectively. The viability at 0.05 µM in the series on B16-F10 [4] worked out at 49.3%. Also, the inhibition entry with B16-F10 [9] is “Dose-Dependent Effect”. For the same compound, in the series with B16-F10 [10], the 50% inhibitory concentration (IC50) is 20 nM.
